In PubChem BioAssay AID1259407 (Chemical Carcinogenesis Research Information System (CCRIS), 2018):
Active and inactive are the calls of the source. The rule behind the calls is not given here.

System: CCRIS mutagenicity, Ames/micronucleus/aberration tests
Experiment: CCRIS mutagenicity studies

Measured: mutagenic call

Oc1cccc2cccnc12
active: End Point: IN VITRO CHROMOSOMAL ABERRATIONS, Test System: CHL CELLS, Metabolic Activation: RAT, LIVER, S-9, SODIUM PHENOBARBITAL AND 5,6-BENZOFLAVONE active; positive (structural changes) | End Point: IN VITRO CHROMOSOMAL ABERRATIONS, Test System: CHO-LB CELLS, Metabolic Activation: RAT, LIVER, S-9, AROCLOR 1254 active; positive | End Point: IN VITRO CHROMOSOMAL ABERRATIONS, Test System: CHO-WBL CELLS, Metabolic Activation: RAT, LIVER, S-9, PHENOBARBITAL AND BETA-NAPHTHOFLAVONE active; positive | Test System: AMES SALMONELLA TYPHIMURIUM, Strain/Indicator: TA97, Metabolic Activation: HAMSTER, LIVER, S-9, AROCLOR 1254 (10%), Method: PREINCUBATION active; positive | Test System: AMES SALMONELLA TYPHIMURIUM, Strain/Indicator: TA97, Metabolic Activation: RAT, LIVER, S-9, AROCLOR 1254 (10%), Method: PREINCUBATION active; positive | Test System: AMES SALMONELLA TYPHIMURIUM, Strain/Indicator: TA98, Metabolic Activation: RAT LIVER S-9, AROCLOR 1254, Method: FLUCTUATION (MICROTITER) active; positive | Test System: AMES SALMONELLA TYPHIMURIUM, Strain/Indicator: TA98, Metabolic Activation: RAT, LIVER, S-9, AROCLOR 1254 (30%), Method: PREINCUBATION active; positive | Test System: AMES SALMONELLA TYPHIMURIUM, Strain/Indicator: TA98, Metabolic Activation: RAT, LIVER, S-9, AROCLOR 1254, Method: STANDARD PLATE active; positive | Test System: AMES SALMONELLA TYPHIMURIUM, Strain/Indicator: TA98, Metabolic Activation: RAT, LIVER, S-9, KC500 OR PHENOBARBITAL, Method: LIQUID SUSPENSION active; positive | Test System: AMES SALMONELLA TYPHIMURIUM, Strain/Indicator: TA98, Metabolic Activation: RAT, LIVER, S-9, Method: PREINCUBATION active; positive | Test System: AMES SALMONELLA TYPHIMURIUM, Strain/Indicator: TA100, Metabolic Activation: HAMSTER, LIVER, S-9, AROCLOR 1254 (10%), Method: PREINCUBATION active; positive | Test System: AMES SALMONELLA TYPHIMURIUM, Strain/Indicator: TA100, Metabolic Activation: RAT, LIVER, S-9, AROCLOR 1254 (5%, 10% OR 20%), Method: STANDARD PLATE active; positive | Test System: AMES SALMONELLA TYPHIMURIUM, Strain/Indicator: TA100, Metabolic Activation: RAT, LIVER, S-9, AROCLOR 1254 (10% OR 20%), Method: STANDARD PLATE active; positive | Test System: AMES SALMONELLA TYPHIMURIUM, Strain/Indicator: TA100, Metabolic Activation: RAT, LIVER, S-9, AROCLOR 1254 (10%), Method: PREINCUBATION active; positive | Test System: AMES SALMONELLA TYPHIMURIUM, Strain/Indicator: TA100, Metabolic Activation: RAT, LIVER, S-9, AROCLOR 1254 (30%), Method: PREINCUBATION active; positive | Test System: AMES SALMONELLA TYPHIMURIUM, Strain/Indicator: TA100, Metabolic Activation: RAT, LIVER, S-9, AROCLOR 1254, Method: STANDARD PLATE active; positive | Test System: AMES SALMONELLA TYPHIMURIUM, Strain/Indicator: TA100, Metabolic Activation: RAT, LIVER, S-9, KC500 OR PHENOBARBITAL, Method: LIQUID SUSPENSION active; positive | Test System: AMES SALMONELLA TYPHIMURIUM, Strain/Indicator: TA100, Metabolic Activation: RAT, LIVER, S-9, Method: PREINCUBATION active; positive | Test System: AMES SALMONELLA TYPHIMURIUM, Strain/Indicator: TA100, Metabolic Activation: S-9, Method: PREINCUBATION active; positive | Test System: AMES SALMONELLA TYPHIMURIUM, Strain/Indicator: TA1535, Metabolic Activation: RAT, LIVER, S-9, AROCLOR 1254, Method: STANDARD PLATE active; positive | Test System: AMES SALMONELLA TYPHIMURIUM, Strain/Indicator: TA1537, Metabolic Activation: RAT LIVER S-9, AROCLOR 1254, Method: FLUCTUATION (MICROTITER) active; positive | Test System: AMES SALMONELLA TYPHIMURIUM, Strain/Indicator: TA1537, Metabolic Activation: RAT, LIVER, S-9, AROCLOR 1254, Method: STANDARD PLATE active; positive | Test System: AMES SALMONELLA TYPHIMURIUM, Strain/Indicator: TA7002, Metabolic Activation: RAT LIVER S-9, AROCLOR 1254, Method: FLUCTUATION (MICROTITER) active; positive | Test System: AMES SALMONELLA TYPHIMURIUM, Strain/Indicator: TA7005, Metabolic Activation: RAT LIVER S-9, AROCLOR 1254, Method: FLUCTUATION (MICROTITER) active; positive
inactive: End Point: IN VITRO CHROMOSOMAL ABERRATIONS, Test System: CHO-LB CELLS, Metabolic Activation: NONE inactive; negative | Test System: AMES SALMONELLA TYPHIMURIUM, Strain/Indicator: TA97, Metabolic Activation: NONE, Method: PREINCUBATION inactive; negative | Test System: AMES SALMONELLA TYPHIMURIUM, Strain/Indicator: TA98, Metabolic Activation: HAMSTER, LIVER, S-9, AROCLOR 1254 (10%), Method: PREINCUBATION inactive; negative | Test System: AMES SALMONELLA TYPHIMURIUM, Strain/Indicator: TA98, Metabolic Activation: HAMSTER, LIVER, S-9, AROCLOR 1254 (30%), Method: PREINCUBATION inactive; negative | Test System: AMES SALMONELLA TYPHIMURIUM, Strain/Indicator: TA98, Metabolic Activation: NONE, Method: FLUCTUATION (MICROTITER) inactive; negative | Test System: AMES SALMONELLA TYPHIMURIUM, Strain/Indicator: TA98, Metabolic Activation: NONE, Method: PREINCUBATION inactive; negative | Test System: AMES SALMONELLA TYPHIMURIUM, Strain/Indicator: TA98, Metabolic Activation: RAT, LIVER, S-9, AROCLOR 1254 (10%), Method: PREINCUBATION inactive; negative | Test System: AMES SALMONELLA TYPHIMURIUM, Strain/Indicator: TA100, Metabolic Activation: HAMSTER, LIVER, S-9, AROCLOR 1254 (30%), Method: PREINCUBATION inactive; negative | Test System: AMES SALMONELLA TYPHIMURIUM, Strain/Indicator: TA100, Metabolic Activation: NONE, Method: PREINCUBATION inactive; negative | Test System: AMES SALMONELLA TYPHIMURIUM, Strain/Indicator: TA100, Metabolic Activation: NONE, Method: STANDARD PLATE inactive; negative | Test System: AMES SALMONELLA TYPHIMURIUM, Strain/Indicator: TA1535, Metabolic Activation: HAMSTER, LIVER, S-9, AROCLOR 1254 (10%), Method: PREINCUBATION inactive; negative | Test System: AMES SALMONELLA TYPHIMURIUM, Strain/Indicator: TA1535, Metabolic Activation: NONE, Method: PREINCUBATION inactive; negative | Test System: AMES SALMONELLA TYPHIMURIUM, Strain/Indicator: TA1535, Metabolic Activation: RAT, LIVER, S-9, AROCLOR 1254 (10%), Method: PREINCUBATION inactive; negative | Test System: AMES SALMONELLA TYPHIMURIUM, Strain/Indicator: TA1537, Metabolic Activation: NONE, Method: FLUCTUATION (MICROTITER) inactive; negative | Test System: AMES SALMONELLA TYPHIMURIUM, Strain/Indicator: TA7001, Metabolic Activation: NONE, Method: FLUCTUATION (MICROTITER) inactive; negative | Test System: AMES SALMONELLA TYPHIMURIUM, Strain/Indicator: TA7001, Metabolic Activation: RAT LIVER S-9, AROCLOR 1254, Method: FLUCTUATION (MICROTITER) inactive; negative | Test System: AMES SALMONELLA TYPHIMURIUM, Strain/Indicator: TA7002, Metabolic Activation: NONE, Method: FLUCTUATION (MICROTITER) inactive; negative | Test System: AMES SALMONELLA TYPHIMURIUM, Strain/Indicator: TA7003, Metabolic Activation: NONE, Method: FLUCTUATION (MICROTITER) inactive; negative | Test System: AMES SALMONELLA TYPHIMURIUM, Strain/Indicator: TA7003, Metabolic Activation: RAT LIVER S-9, AROCLOR 1254, Method: FLUCTUATION (MICROTITER) inactive; negative | Test System: AMES SALMONELLA TYPHIMURIUM, Strain/Indicator: TA7004, Metabolic Activation: NONE, Method: FLUCTUATION (MICROTITER) inactive; negative | Test System: AMES SALMONELLA TYPHIMURIUM, Strain/Indicator: TA7004, Metabolic Activation: RAT LIVER S-9, AROCLOR 1254, Method: FLUCTUATION (MICROTITER) inactive; negative | Test System: AMES SALMONELLA TYPHIMURIUM, Strain/Indicator: TA7005, Metabolic Activation: NONE, Method: FLUCTUATION (MICROTITER) inactive; negative | Test System: AMES SALMONELLA TYPHIMURIUM, Strain/Indicator: TA7006, Metabolic Activation: NONE, Method: FLUCTUATION (MICROTITER) inactive; negative | Test System: AMES SALMONELLA TYPHIMURIUM, Strain/Indicator: TA7006, Metabolic Activation: RAT LIVER S-9, AROCLOR 1254, Method: FLUCTUATION (MICROTITER) inactive; negative | Test System: UDS RODENT HEPATOCYTES, Strain/Indicator: THY INCORP (NON-S-PHASE), Metabolic Activation: IN VIVO, Method: AUTORADIOGRAPHY inactive; negative

Oc1ccc2c3cc4ccccc4cc3c3ccccc3c2c1O
active: Test System: AMES SALMONELLA TYPHIMURIUM, Strain/Indicator: TA100, Metabolic Activation: RAT, LIVER, S-9, AROCLOR 1254, Method: PREINCUBATION active; positive
